Laboratory results reported in article PMC5225183, “Fingerprinting of neurotoxic compounds using a mouse embryonic stem cell dual luminescence reporter assay” (Archives of Toxicology, 2016).
Marks after values point to notes of the source that are not given here.

Assays:
[1] = printed in column Concentration in humans; ref http://pubchem.ncbi.nlm.nih.gov/compound/16682730; cited from earlier work
[2] = Table S1, three classes; ref per compound in the footnotes of Table S1; cited from earlier work
[3] = test system: ESCs and ESC-derived neurons; assay: Dual luminescence reporter test system, all readouts in ESCs and ESC-derived neurons
From the text: Fig. 1 Synopsis of experimental protocols. The impact of compounds on neural promoter activity (FLuc, Firefly Luciferase under the control of the Tα1 promoter), general promoter activity (RLuc, Renilla Luciferase under the control of the EF1α promoter), and amount of DNA (PI, propidium iodide fluorescence in cell homogenates) was investigated in undifferentiated mouse embryonic pluripotent stem cells (ESCs) and on ESC-derived neurons. Arrows indicate the time of measurement of the three parameters. a Protocol for testing compounds effects on ESCs. CGR8-2Luc cells were plated on gelatin-coated 96-well plates in maintenance medium (BHK21 medium containing 10 % FCS, L-glutamine, NEAA, P/S, and LIF). Twenty-four hours later, cells were exposed to compounds for forty-eight hours. b Protocol for testing compounds on ESC-derived neurons.
(§1) At day 5, cells were then re-plated (3 × 10^5 cells/cm^2) on polyornithine-coated 96-well plates in N2 medium containing DMEM, N2 supplement, penicillin/streptomycin, and 10 ng/ml basic human fibroblast growth factor (bFGF) (Invitrogen). […] To assess toxicity of compounds on undifferentiated pluripotent stem cells (ESCs), CGR8-2Luc cells were plated at 45,000 cells/cm^2 on 0.1 % gelatin-coated dishes in BHK21 medium, supplemented with 10 % fetal calf serum, L-glutamine, non-essential amino acids, penicillin/streptomycin, and leukemia inhibitory factor (LIF). After 24 h, compounds were added and incubated for 48 h, before luciferase expression and PI fluorescence were analyzed. In all experiments, methylmercury was used as a positive control at a concentration of 5 µM.
Luciferase activities were measured with a Dual-Luciferase™ Reporter system kit. CGR8-2Luc ES cells were lysed in 96-well plates according to the manufacturer’s instructions. Luminescence measurements were performed on a Fluostar Optima reader. Luminescence counts were expressed as percentage of promoter activity normalized by comparison with the control wells treated by DMSO. […] parameters were measured in homogenates of ESCs and in ESC-derived neurons: (1) FLuc, reflecting the activity of early neural promoter Tα1. FLuc increases during neuronal differentiation. Many neurotoxic compounds may affect FLuc expression, either through impact on neuronal differentiation, through changes of neuronal gene expression, or through killing of neurons.
(§2) PI was added to cell homogenates after the luciferase test, at a final concentration of 50 µg/ml and incubated for 2 h. After incubation, fluorescence intensity was measured on a Flexstation 3 microplate reader (Excitation: 544 nm ± 15 nm; Emission: 620 nm ± 15 nm). Results are expressed as percentage of control. Propidium iodide (PI) measures total DNA content as an approximation of the cell number. A decrease in PI fluorescence was interpreted as a decrease in cell number and therefore throughout the text referred to as cytotoxicity.
To describe the shape of different concentration–response curves, arbitrary scores were assigned as follows: 0 for “no change,” 1 for “down-stroke,” 2 for “bimodal profile,” and 3 for “up-stroke” (Fig. S1). A curve was classified as “down-stroke” or “up-stroke” if the change in response values comparative to control was statistically significant (p value <0.05, one-way ANOVA with post hoc Dunnett) with an additional requirement of a 30 % decrease or increase of mean response value relative to controls, respectively. If the absolute change in mean response values was below 30 % the curve was classified as “no change.” A curve was classified as “bimodal” if first up-stroke and subsequently down-stroke was observed.

[4] = test system: CGR8-2Luc ESCs
From the text: (§3) Fig. 1 Synopsis of experimental protocols. The impact of compounds on neural promoter activity (FLuc, Firefly Luciferase under the control of the Tα1 promoter), general promoter activity (RLuc, Renilla Luciferase under the control of the EF1α promoter), and amount of DNA (PI, propidium iodide fluorescence in cell homogenates) was investigated in undifferentiated mouse embryonic pluripotent stem cells (ESCs) and on ESC-derived neurons. Arrows indicate the time of measurement of the three parameters. a Protocol for testing compounds effects on ESCs. CGR8-2Luc cells were plated on gelatin-coated 96-well plates in maintenance medium (BHK21 medium containing 10 % FCS, L-glutamine, NEAA, P/S, and LIF). Twenty-four hours later, cells were exposed to compounds for forty-eight hours. b Protocol for testing compounds on ESC-derived neurons. CGR8-2Luc cells were co-cultured with MS5 cells to induce neural differentiation in DMEM medium containing 15 % KO-serum, NEAA, β-mercaptoethanol, and P/S. On day 5, cells were detached and seeded on polyornithine-coated plates in DMEM medium containing N2 supplement, bFGF, and P/S; compound exposure was from day 6 to day 8
as §1, with “To test compounds on ESC-derived neurons, neuronal differentiation was carried out as previously described (Suter et al. [2009]; Xu et al. [2014]). Briefly, CGR8-2Luc cells were seeded on irradiated bone marrow-derived stromal MS5 cells and cultivated for 4 days in DMEM medium containing 15 % Knock-out™ Serum Replacement, non-essential amino acids, beta-mercaptoethanol, and penicillin/streptomycin. At” for “At”
as §2, with “After measurement of luciferase activity, DNA quantity was determined by PI assay, as previously described (Xu et al. [2014]). PI was” for “PI was”
(§4) Lowest adverse effect level (LOAEL) was defined as the lowest tested concentrations that lead to a statistically significant decrease for a given read-out (FLuc, RLuc, and PI) compared to baseline. “Baseline” was not in all cases defined by untreated cells, but may also refer to, e.g., a state of increased activity due to low, non-toxic compound concentrations.

[5] = test system: ESC-derived neurons
From the text: as §3
as §1, with “To test compounds on ESC-derived neurons, neuronal differentiation was carried out as previously described (Suter et al. [2009]; Xu et al. [2014]). Briefly, CGR8-2Luc cells were seeded on irradiated bone marrow-derived stromal MS5 cells and cultivated for 4 days in DMEM medium containing 15 % Knock-out™ Serum Replacement, non-essential amino acids, beta-mercaptoethanol, and penicillin/streptomycin. At” for “At”
as §2, with “After measurement of luciferase activity, DNA quantity was determined by PI assay, as previously described (Xu et al. [2014]). PI was” for “PI was”
as §4

[6] = test system: EF1α promoter
From the text: (§5) Dual luciferase expressing CGR8-2Luc cells were obtained by transduction of mouse ESC CGR8 cells with the 2K7 EFS-Renilla Luciferase (RLuc)/Talpha1-Firefly Luciferase (FLuc) vector as previously described (Suter et al. [2006], [2009]); EFS corresponds to the short promoter of the eukaryotic translation elongation factor 1 alpha (EF1α), and Talpha1 to the Tubulin α1 (Tα1) promoter. Tα1 was selected as a promoter active in neurons, including early stages of neural differentiation. EF1α was originally selected to function as a constitutive promoter; however, it responds to cellular differentiation as well as to various chemicals, as previously shown (Kern et al. [2013]). Cells were cultured on 0.1 % gelatin-coated dishes in CGR8-2luc maintenance medium: BHK21 medium, supplemented with 10 % fetal calf serum, L-glutamine, non-essential amino acids, penicillin/streptomycin, and leukemia inhibitory factor (LIF). CGR8 cells were grown in a feeder-independent manner (embryonic pluripotent stem cells, ESCs) as described in protocol 1 (Fig. 1) before testing compounds of interest.
as §3
as §1, with “To test compounds on ESC-derived neurons, neuronal differentiation was carried out as previously described (Suter et al. [2009]; Xu et al. [2014]). Briefly, CGR8-2Luc cells were seeded on irradiated bone marrow-derived stromal MS5 cells and cultivated for 4 days in DMEM medium containing 15 % Knock-out™ Serum Replacement, non-essential amino acids, beta-mercaptoethanol, and penicillin/streptomycin. At” for “At”
(§6) Luciferase activities were measured with a Dual-Luciferase™ Reporter system kit. CGR8-2Luc ES cells were lysed in 96-well plates according to the manufacturer’s instructions. Luminescence measurements were performed on a Fluostar Optima reader. Luminescence counts were expressed as percentage of promoter activity normalized by comparison with the control wells treated by DMSO.

[7] = test system: Tubulin α1 (Tα1) promoter
From the text: as §5, §3
as §1, with “To test compounds on ESC-derived neurons, neuronal differentiation was carried out as previously described (Suter et al. [2009]; Xu et al. [2014]). Briefly, CGR8-2Luc cells were seeded on irradiated bone marrow-derived stromal MS5 cells and cultivated for 4 days in DMEM medium containing 15 % Knock-out™ Serum Replacement, non-essential amino acids, beta-mercaptoethanol, and penicillin/streptomycin. At” for “At”
as §6

[8] = test system: Tubulin α1 (Tα1) promoter; assay: cells
From the text: as §5, §3
as §1, with “To test compounds on ESC-derived neurons, neuronal differentiation was carried out as previously described (Suter et al. [2009]; Xu et al. [2014]). Briefly, CGR8-2Luc cells were seeded on irradiated bone marrow-derived stromal MS5 cells and cultivated for 4 days in DMEM medium containing 15 % Knock-out™ Serum Replacement, non-essential amino acids, beta-mercaptoethanol, and penicillin/streptomycin. At” for “At”
as §6

[9] = test system: rats; settings: rats, gestational days 6–17; ref Australian Therapeutic Goods Administration [2014]; cited from earlier work

SMILES	oral lethal dose [1]	class based on clinical evidence for neurotoxicity [2]	Number of non-cytotoxic changes [3]	LOAEL ESC DNA [4]	LOAEL Neurons DNA [5]	LOAEL ESC EF1α [6]	LOAEL Neurons EF1α [6]	LOAEL ESC Tα1 [7]	LOAEL Neurons Tα1 [8]	oral dose inducing developmental toxicity [9]
CC(=O)[O][Hg][c]1ccccc1 [Phenylmercuric acetate]	5–50 mg/kg (oral lethal dose)^i	Possibly (developmental)	0	0.5 µM	0.5 µM	0.5 µM	0.5 µM	0.5 µM	0.5 µM	
CC(=O)O[C@H]1CC[C@@]2(C)C(=CC[C@@H]3[C@@H]2CC[C@]2(C)C(c4cccnc4)=CC[C@@H]32)C1 [abiraterone acetate]										≥ 10 mg/kg/day
